This passage reports IC50 results from ChEMBL document CHEMBL1148209, “Isolation and structure determination of cryptophycins 38, 326, and 327 from the terrestrial cyanobacterium Nostoc sp. GSV 224” (J Nat Prod, 2004).

SMILES strings stand for the structures.

The assay deals with KB. In words: Cytotoxicity against human KB cells. It is filed as functional, cell-based.
Take `COc1ccc(C[C@H]2NC(=O)/C=C/C[C@@H]([C@H](C)[C@@H]3O[C@H]3c3ccccc3)OC(=O)[C@H](CC(C)C)OC(=O)[C@H](C)CNC2=O)cc1Cl` [CRYPTOPHYCIN 38]: the IC50 is 54.7 nM.
`COc1c(Cl)cc(C[C@H]2NC(=O)/C=C/C[C@@H]([C@H](C)[C@H]3O[C@@H]3c3ccccc3)OC(=O)[C@H](CC(C)C)OC(=O)CCNC2=O)cc1Cl` [CRYPTOPHYCIN 326] showed an IC50 of 1160 nM.
The compound `COc1ccc(C[C@H]2NC(=O)/C=C/C[C@@H]([C@H](C)[C@@H]3O[C@@H]3c3ccccc3)OC(=O)[C@H](CC(C)C)OC(=O)[C@H](C)CNC2=O)cc1Cl` [CRYPTOPHYCIN 77] gave an IC50 of 654 nM.
In turn, `COc1ccc(C[C@H]2NC(=O)/C=C\C[C@@H]([C@H](C)[C@H]3O[C@@H]3c3ccccc3)OC(=O)[C@H](CC(C)C)OC(=O)[C@H](C)CNC2=O)cc1Cl` [CRYPTOPHYCIN 327] showed an IC50 of 14100 nM.
In turn, `COc1ccc(C[C@H]2NC(=O)/C=C/C[C@@H]([C@H](C)[C@H]3O[C@H]3c3ccccc3)OC(=O)[C@H](CC(C)C)OC(=O)[C@H](C)CNC2=O)cc1Cl` [CRYPTOPHYCIN 39] displayed a half-inhibitory concentration (IC50) of 72 nM.

One may read the IC50 as the concentration that inhibits the measured activity by half. The low end stands for higher potency, the high end for lower potency.
